Data taken from patent US10906915B2, “Substituted pyrazoloazepin-4-ones and their use as phosphodiesterase inhibitors” (LEO Pharma A/S, priority 2016, dated 2021).

Each compound was assayed against human PDE4D catalytic domain (UniProt no. Q08499) (Homo sapiens (Human), UniProt Q08499) (assay: PDE4 assay (TR-FRET, FAM-cAMP cleavage)). Settings: human PDE4D catalytic domain; molar concentration giving 50% inhibition of substrate cleavage; read-out: PDE4 IC50 range.
Chain of human PDE4D catalytic domain (Q08499 380-740 limits assumed): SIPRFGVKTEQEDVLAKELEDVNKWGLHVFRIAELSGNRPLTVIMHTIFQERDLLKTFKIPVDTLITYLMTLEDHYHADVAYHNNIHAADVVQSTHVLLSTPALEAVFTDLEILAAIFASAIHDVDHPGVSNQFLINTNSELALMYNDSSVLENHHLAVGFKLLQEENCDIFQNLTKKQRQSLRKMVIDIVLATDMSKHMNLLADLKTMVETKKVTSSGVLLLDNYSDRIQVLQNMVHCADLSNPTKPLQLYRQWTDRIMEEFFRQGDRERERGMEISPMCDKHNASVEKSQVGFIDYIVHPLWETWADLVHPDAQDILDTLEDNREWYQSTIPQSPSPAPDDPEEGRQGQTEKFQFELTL
Format: biochemical
Outline: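 PDE4D catalytic domain ([…]) was incubated with unlabelled cAMP plus FAM-cAMP and titrated compound, stopped with binding buffer of metal-ion nanoparticles and Tb donor. AMP generation read by TR-FRET; IC50 as 50% inhibition of cleavage versus controls, reported as nM ranges.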
Compound CCc1nn(C[C@@H](C)COC(=O)c2ccc(OC)cc2C(F)(F)F)c2c1C(=O)NCC1(CCOCC1)C2 [Example 229, [(2R)-3-(3-ethyl-4-oxo-spiro[6,8-dihydro-5H-pyrazolo[4,3-c]azepine-7,4′-tetrahydropyran]-1-yl)-2-methyl-propyl] 4-methoxy-2-(trifluoromethyl)benzoate] has an IC50 of less than 100 nM.
For CCc1nn(CCCOC(=O)c2ccc(OC)cc2)c2c1C(=O)NCC1(CCOCC1)C2 [Example 28, 3-(3-ethyl-4-oxo-spiro[6,8-dihydro-5H-pyrazolo[4,3-c]azepine-7,4′-tetrahydropyran]-1-yl)propyl 4-methoxybenzoate], the IC50 was less than 100 nM.
In the case of CCc1nn(CCCOC(=O)c2cccc(Cl)c2C)c2c1C(=O)NCC1(CCOCC1)C2 [Example 74, 3-(3-ethyl-4-oxo-spiro[6,8-dihydro-5H-pyrazolo[4,3-c]azepine-7,4′-tetrahydropyran]-1-yl)propyl 3-chloro-2-methyl-benzoate], the IC50 is reported as less than 100 nM.
CCc1nn(CCCOC(=O)c2cccc(S(=O)(=O)NC)c2)c2c1C(=O)NCC1(CCOCC1)C2 [Example 116, 3-(3-ethyl-4-oxo-spiro[6,8-dihydro-5H-pyrazolo[4,3-c]azepine-7,4′-tetrahydropyran]-1-yl)propyl 3-(methylsulfamoyl) benzoate] showed an IC50 of less than 100 nM.
CCc1nn(C[C@@H](C)COC(=O)c2ccc(C(=O)NC)cc2)c2c1C(=O)NCC1(CCOCC1)C2 [Example 253, [(2R)-3-(3-ethyl-4-oxo-spiro[6,8-dihydro-5H-pyrazolo[4,3-c]azepine-7,4′-tetrahydropyran]-1-yl)-2-methyl-propyl] 4-(methylcarbamoyl)benzoate] gave an IC50 of less than 100 nM.
In the case of CCc1nn(CCCOC(=O)c2cc(Cl)ccc2OC)c2c1C(=O)NCC1(CCOCC1)C2 [Example 93, 3-(3-ethyl-4-oxo-spiro[6,8-dihydro-5H-pyrazolo[4,3-c]azepine-7,4′-tetrahydropyran]-1-yl)propyl 5-chloro-2-methoxy-benzoate], the IC50 is reported as less than 100 nM.
CCNC(=O)c1ccc(C(=O)OCCCn2nc(CC)c3c2CC2(CCOCC2)CNC3=O)cc1 [Example 142, 3-(3-ethyl-4-oxo-spiro[6,8-dihydro-5H-pyrazolo[4,3-c]azepine-7,4′-tetrahydropyran]-1-yl)propyl 4-(ethylcarbamoyl)benzoate] gave an IC50 of less than 100 nM.
CCc1nn(CCCOC(=O)c2ccc(C(=O)NC)cc2)c2c1C(=O)NCC1(CCOCC1)C2 [Example 141, 3-(3-ethyl-4-oxo-spiro[6,8-dihydro-5H-pyrazolo[4,3-c]azepine-7,4′-tetrahydropyran]-1-yl)propyl 4-(methylcarbamoyl)benzoate] gave an IC50 of less than 100 nM.
With CCc1nn(CCCOC(=O)c2cccc(F)c2C)c2c1C(=O)NCC1(CCOCC1)C2 [Example 36, 3-(3-ethyl-4-oxo-spiro[6,8-dihydro-5H-pyrazolo[4,3-c]azepine-7,4′-tetrahydropyran]-1-yl)propyl 3-fluoro-2-methyl-benzoate] the IC50 was less than 100 nM.
CCc1nn(C[C@@H](C)COC(=O)c2cccc(S(=O)(=O)N3CCN(C(C)=O)CC3)c2)c2c1C(=O)NCC1(CCOCC1)C2 [Example 251, [(2R)-3-(3-ethyl-4-oxo-spiro[6,8-dihydro-5H-pyrazolo[4,3-c]azepine-7,4′-tetrahydropyran]-1-yl)-2-methyl-propyl] 3-(4-acetylpiperazin-1-yl)sulfonylbenzoate] showed an IC50 of less than 100 nM.
CCc1nn(CCCOC(=O)CCOC)c2c1C(=O)NCC1(CCOCC1)C2 [Example 8, 3-(3-ethyl-4-oxo-spiro[6,8-dihydro-5H-pyrazolo[4,3-c]azepine-7,4′-tetrahydropyran]-1-yl)propyl 3-methoxypropanoate] showed an IC50 greater than 500 nM.
CCc1nn(C[C@@H](C)COC(=O)c2cc(F)ccc2C)c2c1C(=O)NCC1(CCOCC1)C2 [Example 173, [(2R)-3-(3-ethyl-4-oxo-spiro[6,8-dihydro-5H-pyrazolo[4,3-c]azepine-7,4′-tetrahydropyran]-1-yl)-2-methyl-propyl] 5-fluoro-2-methyl-benzoate] gave an IC50 of less than 100 nM.
For CCc1nn(CCCOC(C)=O)c2c1C(=O)NCC1(CCOCC1)C2 [Example 6, 3-(3-ethyl-4-oxo-spiro[6,8-dihydro-5H-pyrazolo[4,3-c]azepine-7,4′-tetrahydropyran]-1-yl)propyl acetate], the IC50 was 100 to 500 nM.
CCc1nn(CCCOC(=O)c2ccc(C#N)c(F)c2)c2c1C(=O)NCC1(CCOCC1)C2 [Example 52, 3-(3-ethyl-4-oxo-spiro[6,8-dihydro-5H-pyrazolo[4,3-c]azepine-7,4′-tetrahydropyran]-1-yl)propyl 4-cyano-3-fluoro-benzoate] showed an IC50 of less than 100 nM.
CCc1nn(C[C@@H](C)COC(=O)c2ccc(C)cc2)c2c1C(=O)NCC1(CCOCC1)C2 [Example 164, [(2R)-3-(3-ethyl-4-oxo-spiro[6,8-dihydro-5H-pyrazolo[4,3-c]azepine-7,4′-tetrahydropyran]-1-yl)-2-methyl-propyl] 4-methylbenzoate] showed an IC50 of less than 100 nM.
Work on CCc1nn(CCCOC(=O)c2cccc(F)c2OC)c2c1C(=O)NCC1(CCOCC1)C2 [Example 70, 3-(3-ethyl-4-oxo-spiro[6,8-dihydro-5H-pyrazolo[4,3-c]azepine-7,4′-tetrahydropyran]-1-yl)propyl 3-fluoro-2-methoxy-benzoate] yielded an IC50 of less than 100 nM.
CCc1nn(C[C@@H](C)COC(=O)c2cc(Cl)cc(C(F)(F)F)c2)c2c1C(=O)NCC1(CCOCC1)C2 [Example 240, [(2R)-3-(3-ethyl-4-oxo-spiro[6,8-dihydro-5H-pyrazolo[4,3-c]azepine-7,4′-tetrahydropyran]-1-yl)-2-methyl-propyl] 3-chloro-5-(trifluoromethyl)benzoate] showed an IC50 of less than 100 nM.
CCc1nn(CCCOC(=O)c2ccccc2F)c2c1C(=O)NCC1(CCOCC1)C2 [Example 19, 3-(3-ethyl-4-oxo-spiro[6,8-dihydro-5H-pyrazolo[4,3-c]azepine-7,4′-tetrahydropyran]-1-yl)propyl 2-fluorobenzoate] was tested, and the IC50 was less than 100 nM.

Same assay, conditions: read-out: PDE4 IC50 range
Work on CCc1nn(CC(C)(C)COC(=O)c2cccc(S(=O)(=O)N3CCN(C(C)=O)CC3)c2)c2c1C(=O)NCC1(CCOCC1)C2 [Example 325, [3-(3-ethyl-4-oxo-spiro[6,8-dihydro-5H-pyrazolo[4,3-c]azepine-7,4′-tetrahydropyran]-1-yl)-2,2-dimethyl-propyl] 3-(4-acetylpiperazin-1-yl)sulfonylbenzoate] yielded an IC50 of less than 100 nM.
For CCc1nn(CC(C)(C)COC(=O)c2cccc(S(=O)(=O)N3CCCC3)c2)c2c1C(=O)NCC1(CCOCC1)C2 [Example 320, [3-(3-ethyl-4-oxo-spiro[6,8-dihydro-5H-pyrazolo[4,3-c]azepine-7,4′-tetrahydropyran]-1-yl)-2,2-dimethyl-propyl] 3-pyrrolidin-1-ylsulfonylbenzoate], the IC50 was less than 100 nM.
CCc1nn(CC(C)(C)COC(=O)c2ccc(S(=O)(=O)C3CCCC3)cc2)c2c1C(=O)NCC1(CCOCC1)C2 [Example 319, [3-(3-ethyl-4-oxo-spiro[6,8-dihydro-5H-pyrazolo[4,3-c]azepine-7,4′-tetrahydropyran]-1-yl)-2,2-dimethyl-propyl] 4-cyclopentylsulfonylbenzoate] showed an IC50 of less than 100 nM.
CCc1nn(C[C@H](C)COC(=O)c2cccc(F)c2)c2c1C(=O)NCC1(CCOCC1)C2 [Example 276, [(2S)-3-(3-ethyl-4-oxo-spiro[6,8-dihydro-5H-pyrazolo[4,3-c]azepine-7,4′-tetrahydropyran]-1-yl)-2-methyl-propyl] 3-fluorobenzoate] showed an IC50 of less than 100 nM.
Work on CCc1nn(CC(C)(C)COC(=O)c2ccc(C(=O)N(C)C)cc2)c2c1C(=O)NCC1(CCOCC1)C2 [Example 331, [3-(3-ethyl-4-oxo-spiro[6,8-dihydro-5H-pyrazolo[4,3-c]azepine-7,4′-tetrahydropyran]-1-yl)-2,2-dimethyl-propyl] 4-(dimethylcarbamoyl)benzoate] yielded an IC50 of less than 100 nM.
CCc1nn(C[C@@H](C)COC(=O)c2cccc(C(=O)N3CCN(C)CC3)c2)c2c1C(=O)NCC1(CCOCC1)C2 [Example 272, [(2R)-3-(3-ethyl-4-oxo-spiro[6,8-dihydro-5H-pyrazolo[4,3-c]azepine-7,4′-tetrahydropyran]-1-yl)-2-methyl-propyl] 3-(4-methylpiperazine-1-carbonyl)benzoate] showed an IC50 of less than 100 nM.
With CCc1nn(CC(C)(C)COC(=O)c2ccc(F)cc2Cl)c2c1C(=O)NCC1(CCOCC1)C2 [Example 301, [3-(3-ethyl-4-oxo-spiro[6,8-dihydro-5H-pyrazolo[4,3-c]azepine-7,4′-tetrahydropyran]-1-yl)-2,2-dimethyl-propyl] 2-chloro-4-fluoro-benzoate] the IC50 was less than 100 nM.
CCc1nn(CC(C)(C)COC(=O)c2ccc(Cl)cc2)c2c1C(=O)NCC1(CCOCC1)C2 [Example 290, [3-(3-ethyl-4-oxo-spiro[6,8-dihydro-5H-pyrazolo[4,3-c]azepine-7,4′-tetrahydropyran]-1-yl)-2,2-dimethyl-propyl] 4-chlorobenzoate] gave an IC50 of less than 100 nM.
In the case of CCc1nn(CC(C)(C)COC(=O)c2cccc(C(=O)N(C)C)c2)c2c1C(=O)NCC1(CCOCC1)C2 [Example 342, [3-(3-ethyl-4-oxo-spiro[6,8-dihydro-5H-pyrazolo[4,3-c]azepine-7,4′-tetrahydropyran]-1-yl)-2,2-dimethyl-propyl] 3-(dimethylcarbamoyl)-benzoate], the IC50 is reported as less than 100 nM.
Compound CCc1nn(CC(C)(C)COC(=O)c2ccc(C(N)=O)cc2)c2c1C(=O)NCC1(CCOCC1)C2 [Example 328, [3-(3-ethyl-4-oxo-spiro[6,8-dihydro-5H-pyrazolo[4,3-c]azepine-7,4′-tetrahydropyran]-1-yl)-2,2-dimethyl-propyl] 4-carbamoylbenzoate] has an IC50 of less than 100 nM.
With CCc1nn(CC(C)(C)COC(=O)c2ccc(C)cc2)c2c1C(=O)NCC1(CCOCC1)C2 [Example 283, [3-(3-ethyl-4-oxo-spiro[6,8-dihydro-5H-pyrazolo[4,3-c]azepine-7,4′-tetrahydropyran]-1-yl)-2,2-dimethyl-propyl] 4-methylbenzoate] the IC50 was less than 100 nM.
